A word on the IC50: it is the concentration at which inhibition is half-maximal. A word on the melting point: it is the temperature of the solid-liquid transition.

Structures are written as SMILES. Some results are limits rather than exact numbers.

Results on 31 compounds are retold here after US7309701B2, “Pyridazinone derivatives as pharmaceuticals and pharmaceutical compositions containing them” (Sanofi-Aventis Deutschland GmbH, priority 2002, dated 2007).

human recombinant GSK-3β, sequence (P49841 whole entry): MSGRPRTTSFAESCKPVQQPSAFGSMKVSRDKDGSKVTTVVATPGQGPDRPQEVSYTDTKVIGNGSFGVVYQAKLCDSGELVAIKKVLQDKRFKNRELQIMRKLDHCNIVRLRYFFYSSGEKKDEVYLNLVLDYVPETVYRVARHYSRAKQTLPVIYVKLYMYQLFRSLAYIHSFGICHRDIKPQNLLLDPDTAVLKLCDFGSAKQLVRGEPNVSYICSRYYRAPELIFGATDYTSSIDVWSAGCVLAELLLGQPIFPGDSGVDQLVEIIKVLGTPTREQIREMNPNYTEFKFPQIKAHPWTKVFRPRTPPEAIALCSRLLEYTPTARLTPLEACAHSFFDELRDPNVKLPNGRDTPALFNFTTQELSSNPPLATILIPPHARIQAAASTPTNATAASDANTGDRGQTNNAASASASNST

One series has as its target human recombinant GSK-3β (Homo sapiens, UniProt P49841). Description: GSK-3β activity, AlphaScreen with primed glycogen synthase substrate peptide. In kind it is biochemical.
Conditions: not given
Here is the method: GSK-β activity was measured using human recombinant GSK-3β and a primed (pre-phosphorylated) substrate peptide (derived from glycogen synthase and containing the phosphorylation sites 3a, b, and c) on basis of the AlphaScreen technology in 384-well plate format (small volume plate, white, GREINER).
For `O=C(NCc1ccc(F)cc1F)c1cc(-c2ccncc2)n[nH]c1=O` [Example 117, 3-Oxo-6-pyridin-4-yl-2,3-dihydro-pyridazine-4-carboxylic acid 2,4-difluoro-benzylamide;compound withtrifluoro-acetic acid], the half-inhibitory concentration (IC50) amounted to 65 nM.

Consider `O=C(NCc1ccc(Cl)cc1)c1cc(-c2ccc(O)c(F)c2)n[nH]c1=O` [Example 183, 6-(3-Fluoro-4-hydroxy-phenyl)-3-oxo-2,3-dihydro-pyridazine-4-carboxylic acid 4-chloro-benzylamide], for which the IC50 was 39 nM. Still for that read-out and setting: the figure for `CCCCNc1nccc(-c2cc(C(=O)NCCCc3cccnc3)c(=O)[nH]n2)n1` [Example 220, 6-(2-Butylamino-pyrimidin-4-yl)-3-oxo-2,3-dihydro-pyridazine-4-carboxylic acid (3-pyridin-3-yl-propyl)-amide] is 36 nM.

The same series, now with this note: human recombinant GSK-3β, 10 μM ATP, 60 min at room temperature, AlphaScreen; read-out: IC50.
On to `O=C(NCc1cccnc1)c1cc(-c2ccncc2)n[nH]c1=O` [Example 14, 3-oxo-6-pyridin-4-yl-N-(pyridin-3-ylmethyl)-2,3-dihydropyridazine-4-carboxamide], for which the IC50 came to 97 nM. On the same count and under the same terms, the figure for `O=C(NCc1ccc(N2CCOCC2)cc1)c1cc(-c2ccncc2)n[nH]c1=O` [Example 17, N-(4-morpholin-4-ylbenzyl)-3-oxo-6-pyridin-4-yl-2,3-dihydropyridazine-4-carboxamide] is 251 nM; for `Cc1cc(-c2cc(C(=O)NCc3ccc(C(=O)O)cc3)c(=O)[nH]n2)cc(C)c1O` [Example 32, 4-({[6-(4-Hydroxy-3,5-dimethyl-phenyl)-3-oxo-2,3-dihydro-pyridazine-4-carbonyl]-amino}-methyl)-benzoic acid] it is 5 nM; for `COc1cc(-c2cc(C(=O)NCc3ccc(Cl)cc3)c(=O)[nH]n2)ccc1O` [Example 41, 6-(4-Hydroxy-3-methoxy-phenyl)-3-oxo-2,3-dihydro-pyridazine-4-carboxylic acid 4-chloro-benzylamide] it is 2300 nM. Same read-out and setting: the figure for `Cc1cc(-c2cc(C(=O)NCCCc3cccnc3)c(=O)[nH]n2)cc(C)c1O` [Example 48, 6-(4-Hydroxy-3,5-dimethyl-phenyl)-3-oxo-2,3-dihydro-pyridazine-4-carboxylic acid (3-pyridin-3-yl-propyl)-amide] is 36 nM; for `COc1cc(-c2cc(C(=O)NCCCc3cccnc3)c(=O)[nH]n2)ccc1O` [Example 49, 6-(4-Hydroxy-3-methoxy-phenyl)-3-oxo-2,3-dihydro-pyridazine-4-carboxylic acid (3-pyridin-3-yl-propyl)-amide] it is 1 nM; for `O=C(NCc1ccc(Br)cc1)c1cc(-c2ccncc2)n[nH]c1=O` [Example 75, 3-Oxo-6-pyridin-4-yl-2,3-dihydro-pyridazine-4-carboxylic acid 4-bromo-benzylamide;compound withtrifluoro-acetic acid] it is 380 nM. The same measure, in the same setting: the figure for `O=C(NCc1ccc(C(F)(F)F)cc1)c1cc(-c2ccncc2)n[nH]c1=O` [Example 112, 3-Oxo-6-pyridin-4-yl-2,3-dihydro-pyridazine-4-carboxylic acid 4-trifluoromethyl-benzylamide;compound withtrifluoro-acetic acid] is 123 nM; for `O=C(NCc1ccc(Cl)cc1F)c1cc(-c2ccncc2)n[nH]c1=O` [Example 116, 3-Oxo-6-pyridin-4-yl-2,3-dihydro-pyridazine-4-carboxylic acid 4-chloro-2-fluoro-benzylamide;compound withtrifluoro-acetic acid] it is 250 nM; for `Cc1cc(-c2cc(C(=O)NCc3ccc(Cl)cc3)c(=O)[nH]n2)ccc1O` [Example 155] it is 10300 nM.

`O=C(Nc1ccncc1)c1ccc(CNC(=O)c2cc(-c3ccncc3)n[nH]c2=O)cc1` [Example 156, 3-Oxo-6-pyridin-4-yl-2,3-dihydro-pyridazine-4-carboxylic acid 4-(pyridin-4-ylcarbamoyl)-benzylamide;compound withtrifluoro-acetic acid]: the 50% inhibitory concentration (IC50) was 86 nM. Regarding `O=C(NCCCc1cccnc1)c1cc(-c2ccc(O)cc2)n[nH]c1=O` [Example 164, 6-(4-Hydroxy-phenyl)-3-oxo-2,3-dihydro-pyridazine-4-carboxylic acid (3-pyridin-3-yl-propyl)-amide], the half-maximal inhibitory concentration (IC50) amounted to 7 nM.

With `O=C(NCc1ccc(Cl)cc1)c1cc(-c2ccnc(NCCN3CCOCC3)n2)n[nH]c1=O` [Example 175, 6-[2-(2-Morpholin-4-yl-ethylamino)-pyrimidin-4-yl]-3-oxo-2,3-dihydro-pyridazine-4-carboxylic acid 4-chloro-benzylamide;compound withtrifluoro-acetic acid], the IC50 was determined as 17 nM. Consider `O=C(NCc1ccc(Cl)cc1)c1cc(-c2ccc(O)c(Cl)c2)n[nH]c1=O` [Example 180, 6-(3-Chloro-4-hydroxy-phenyl)-3-oxo-2,3-dihydro-pyridazine-4-carboxylic acid 4-chloro-benzylamide], for which the half-inhibitory concentration (IC50) was found to be 227 nM. Still for that read-out and setting: the figure for `O=C(NCc1ccc(Cl)cc1)c1cc(-c2cc(F)c(O)c(F)c2)n[nH]c1=O` [Example 182, 6-(3,5-Difluoro-4-hydroxy-phenyl)-3-oxo-2,3-dihydro-pyridazine-4-carboxylic acid 4-chloro-benzylamide] is 170 nM; for `CCNc1nccc(-c2cc(C(=O)NCc3ccc(Cl)cc3)c(=O)[nH]n2)n1` [Example 190, 6-(2-Ethylamino-pyrimidin-4-yl)-3-oxo-2,3-dihydro-pyridazine-4-carboxylic acid 4-chloro-benzylamide] it is over 1000 nM. For `CNc1cc(-c2cc(C(=O)NCc3ccc(Cl)cc3)c(=O)[nH]n2)ccn1` [Example 206, 6-(2-Methylamino-pyridin-4-yl)-3-oxo-2,3-dihydro-pyridazine-4-carboxylic acid 4-chloro-benzylamide], the half-maximal inhibitory concentration (IC50) came to 30 nM. Still for that read-out and setting: the figure for `C[C@@H](Nc1nccc(-c2cc(C(=O)NCCCc3ccccc3)c(=O)[nH]n2)n1)c1ccccc1` [Example 215, R-3-Oxo-6-[2-(1-phenyl-ethylamino)-pyrimidin-4-yl]-2,3-dihydro-pyridazine-4-carboxylic acid(3-phenyl-propyl)-amide] is 24 nM; for `CCCCNc1nccc(-c2cc(C(=O)NCCCN3CCN(C)CC3)c(=O)[nH]n2)n1` [Example 218, 6-(2-Butylamino-pyrimidin-4-yl)-3-oxo-2,3-dihydro-pyridazine-4-carboxylic acid [3-(4-methyl-piperazin-1-yl)-propyl]-amide;compound withtrifluoro-acetic acid] it is 22 nM. The same measure, in the same setting: the figure for `CCCCNc1nccc(-c2cc(C(=O)NCc3cccnc3)c(=O)[nH]n2)n1` [Example 219, 6-(2-Butylamino-pyrimidin-4-yl)-3-oxo-2,3-dihydro-pyridazine-4-carboxylic acid(pyridin-3-ylmethyl)-amide] is 29 nM. For the compound `COc1cc(-c2cc(C(=O)NCc3ccc(C(=O)O)cc3)c(=O)[nH]n2)ccc1O` [Example 225, 4-({[6-(4-Hydroxy-3-methoxy-phenyl)-3-oxo-2,3-dihydro-pyridazine-4-carbonyl]-amino}-methyl)-benzoic acid], the 50% inhibitory concentration (IC50) worked out at 9 nM.

Test system in the next series: not given
Experiment: not given
Conditions: not given
On to `O=C(NCc1ccc(Cl)cc1Cl)c1cc(-c2ccccc2)n[nH]c1=O` [Example 1, N-(2,4-dichlorobenzyl)-3-oxo-6-phenyl-4-yl-2,3-dihydropyridazine-4-carboxamide], for which the melting point is ~ 258 °C.

For `O=C(NCc1ccccc1)c1cc(-c2ccncc2)n[nH]c1=O` [Example 3, N-benzyl-3-oxo-6-pyridin-4-yl-2,3-dihydropyridazine-4-carboxamide], the melting point stood at 258 °C. Still for that read-out and setting: the figure for `O=C(NCCc1ccc(Cl)cc1Cl)c1cc(-c2ccncc2)n[nH]c1=O` [Example 6, N-[2-(2,4-dichlorophenyl)ethyl]-3-oxo-6-pyridin-4-yl-2,3-dihydropyridazine-4-carboxamide] is 202 °C; for `O=C(NCc1cccc(C(F)(F)F)c1)c1cc(-c2ccncc2)n[nH]c1=O` [Example 9, 3-oxo-6-pyridin-4-yl-N-[3-(trifluoromethyl)benzyl]-2,3-dihydropyridazine-4-carboxamide] it is 224 °C; for `CCCCNC(=O)c1cc(-c2ccncc2)n[nH]c1=O` [Example 12, 3-oxo-6-pyridin-4-yl-N-(n-butyl)-2,3-dihydropyridazine-4-carboxamide] it is 209 °C. The compound `CCOC(=O)CCNC(=O)c1cc(-c2ccncc2)n[nH]c1=O` [Example 13, Ethyl 3-[(3-oxo-6-pyridin-4-yl-2,3-dihydropyridazine-4-carbonyl)amino]propionate] registered a melting point of 180 °C.

Take `O=C(NCc1cccnc1)c1cc(-c2ccncc2)n[nH]c1=O` [Example 14, 3-oxo-6-pyridin-4-yl-N-(pyridin-3-ylmethyl)-2,3-dihydropyridazine-4-carboxamide]: the melting point was found to be 262 °C. In turn, `O=C(NCc1ccccn1)c1cc(-c2ccncc2)n[nH]c1=O` [Example 15, 3-oxo-6-pyridin-4-yl-N-(pyridin-2-ylmethyl)-2,3-dihydropyridazine-4-carboxamide] yielded a melting point of 242 °C. For the compound `O=C(NCc1ccc(N2CCOCC2)cc1)c1cc(-c2ccncc2)n[nH]c1=O` [Example 17, N-(4-morpholin-4-ylbenzyl)-3-oxo-6-pyridin-4-yl-2,3-dihydropyridazine-4-carboxamide], the melting point was 252 °C.
